Source: US20250082625A1, “NOVEL THERAPY” (priority 2016, published 2025)
Entries after “also recorded” stand apart in the source; their conditions may differ.

Test system: NK1R
Assay: Neuropeptide response in bladders of CY-17 infected Nlrp3^−/− mice treated with NK1R antagonist (immunohistochemistry, qRT-PCR)
Type: in vivo
Settings: for Nk1r expression (qRT-PCR) / Ppt-1 expression (qRT-PCR): 1 mg/kg i.p.
Excerpt: Mice were bred and housed in the specific pathogen-free MIG animal facilities (Lund, Sweden) with free access to food and water. Female C57BL/6 mice or Il1b^−/−, Nlrp3^−/−, Asc^−/− mice were used for experiments at 9-15 weeks of age.
Tissues were embedded in O.C.T. compound (VWR) and 7-μm-thick fresh cryosections were mounted on positively charged microscope slides (Superfrost/Plus; Thermo Fisher Scientific) Sections were permeabilized (0.25% Triton X-100, 5% FBS), blocked (5% FBS) and stained: rabbit anti-NK1R (1:50, SC-15323, SantaCruz), rabbit anti-substance p (1:100, ORB11399, Biorbyt), rabbit anti-orexin receptor 2 (1:300, AB104701, Abcam), rabbit anti-GALR2 (1:50, AB136264, Abcam) or rabbit anti-TAS2R43 (1:100, AB65513, Abcam). Antibodies were appropriately labeled using goat anti-rabbit secondary antibodies conjugated to Alexa 488 (1:200 in 0.025% Triton X-100, 5% FBS) for 1 h in RT before nuclear counterstaining using Draq5 (1:1000, Abcam). Sections were imaged by laser scanning confocal microscopy (MSM510 META confocal microscope, Carl Zeiss) or by fluorescence microscopy (AX60, Olympus Optical).
Complementary DNA was reverse-transcribed from 0.2-1 μg of mice total RNA using SuperScript™ III First-Strand Synthesis System for RT-PCR (Invitrogen), and quantified in real time using primer pairs against Mus musculus Nk1r, Ppt-1^37 and Galr2 and QuantiTect® SYBR® Green PCR kits (Qiagen) on a Rotor Gene Q (Qiagen).
qRT-PCR reactions were run in technical duplicates and gene expression was analyzed based on ΔΔCT comparison to Mus musculus GAPDH.
The severity of acute cystitis after 24 hours or seven days was examined and neuropeptide expression and disease severity quantified by immunohistochemistry and qRT-PCR of whole bladder RNA extracts, using primers specific for NK1R, Ppt-1 or Galr2 as described above.

[1] = Nlrp3^−/− mice, CY-17 infection, SR140333 i.p. 1 mg/kg, vs untreated infected mice, 1 mg/kg

SMILES: CC(C)Oc1cccc(CC(=O)N2CCC[C@](CC[N+]34CCC(c5ccccc5)(CC3)CC4)(c3ccc(Cl)c(Cl)c3)C2)c1.[Cl-] [SR140333, 1-[2-[(3S)-3-(3,4-Dichlorophenyl)-1-[2-[3-(1-methylethoxy)phenyl]acetyl]-3-piperidinyl]ethyl]-4-phenyl-1-azoniabicyclo[2.2.2]octane chloride]
- mucosal NK1R response to infection (NK1R staining) [1]: reduced; also recorded: Inhibition
- mucosal SP response to infection (SP staining) [1]: reduced; also recorded: Attenuated
- Galr2 expression (qRT-PCR) (either treatment (prophylactic or post-infection), p=0.19 and p=0.63): no significant effect; also recorded: not altered
- GALR2 staining (infected mice, n=4 mice per condition): does not effect
- Nk1r expression (qRT-PCR) (post-infection treatment, p<0.01): reduced
- Ppt-1 expression (qRT-PCR) (post-infection treatment, p<0.01, 1 mg/kg): affected; also recorded: Inhibition
- Nk1r expression (qRT-PCR) (prophylactic treatment (pretreatment), p<0.05): reduced
- Ppt-1 expression (qRT-PCR) (prophylaxis (pretreatment), p=0.06): less efficient
